Laboratory results: the supplement of paper PMC11451515

Assays:
SEM cells [1] = assay: cell viability relative to DMSO control; higher = less cytotoxic; conditions: 48 h
Summary of the method: (§1)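 Library compounds in DMSO were pin-dosed in an 11-point threefold series (47 μM to 0.79 nM) onto leukemia cells in 1536-well plates (5 μl). Plates held 500 cells/well of NOMO1 or SEM or 1000 cells/well of P12-Ichikawa, each adapted for at least four passages in each medium. Luminescence was read with CellTiter-Glo One after 48 h at 37°C. Viability means the per-plate percentage relative to DMSO wells, using cell-free wells as background.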

P12-Ichikawa [2] = assay: as above; conditions: HPLM + 10% dialyzed FBS, 48 h
Summary of the method: as §1

SEM cells [3] = assay: AUC of viability dose-response curve (% viability x log10 dose units); higher = less sensitive; conditions: 48 h
Summary of the method: (§2)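 Area under the curve was integrated by trapezoidal rule from a log-logistic fit of normalised viability, with curves exceeding full viability scaled and quality-control failures removed. The fit had four parameters over log10 doses. Viability came from CellTiter-Glo One luminescence, normalised per plate to DMSO and cell-free wells, after leukemia cells adapted to each medium (500 or 1000 cells/well, 1536-well plates) were exposed to library compounds in DMSO for 48 h at 37°C. The 11 threefold doses ran from 47 μM to 0.79 nM.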

NOMO1 = assay: as above; conditions: 48 h
Summary of the method: as §2

P12-Ichikawa [4] = assay: as above; conditions: 48 h
Summary of the method: as §2

CCCCCCOC(=O)/N=C(/N)c1ccc(NCc2nc3cc(C(=O)N(CCC(=O)OCC)c4ccccn4)ccc3n2C)cc1
SEM cells [1], HPLM + 10% dialyzed FBS
Conditions	cell viability [%]
0.000781 µM	112
0.00234 µM	113
0.00702 µM	124
0.0211 µM	125
0.0632 µM	123
0.19 µM	125
0.569 µM	129
1.71 µM	134
5.12 µM	145
15.4 µM	137
46.1 µM	125

Conditions	AUC of viability dose-response curve	cell viability [%]
NOMO1, HPLM + 10% dialyzed FBS	443	–
NOMO1, RPMI 5 mM glucose + 10% FBS	449	–
NOMO1, RPMI 5 mM glucose + 10% dialyzed FBS	449	–
P12-Ichikawa [2], 0.000781 µM	–	114
P12-Ichikawa [2], 0.00234 µM	–	130
P12-Ichikawa [2], 0.00702 µM	–	122
P12-Ichikawa [2], 0.0211 µM	–	131
P12-Ichikawa [2], 0.0632 µM	–	109
P12-Ichikawa [2], 0.19 µM	–	138
P12-Ichikawa [2], 0.569 µM	–	138
P12-Ichikawa [2], 1.71 µM	–	125
P12-Ichikawa [2], 5.12 µM	–	145
P12-Ichikawa [2], 15.4 µM	–	121
P12-Ichikawa [2], 46.1 µM	–	106
P12-Ichikawa [4], HPLM + 10% dialyzed FBS	475	–
P12-Ichikawa [4], RPMI 5 mM glucose + 10% FBS	465	–
P12-Ichikawa [4], RPMI 5 mM glucose + 10% dialyzed FBS	467	–
SEM cells [3], HPLM + 10% dialyzed FBS	448	–
SEM cells [3], RPMI 5 mM glucose + 10% FBS	468	–
SEM cells [3], RPMI 5 mM glucose + 10% dialyzed FBS	475	–

Cc1cncc2cccc([S+](=O)([O-])N3CCCN(C(=O)CN)C[C@@H]3C)c12
SEM cells [1], HPLM + 10% dialyzed FBS
Conditions	cell viability [%]
0.000781 µM	94.8
0.00234 µM	114
0.00702 µM	126
0.0211 µM	124
0.0632 µM	122
0.19 µM	134
0.569 µM	138
1.71 µM	137
5.12 µM	79
15.4 µM	66.7
46.1 µM	39.9

AUC of viability dose-response curve
Conditions	NOMO1	P12-Ichikawa [4]	SEM cells [3]
HPLM + 10% dialyzed FBS	455	401	419
RPMI 5 mM glucose + 10% FBS	446	401	397
RPMI 5 mM glucose + 10% dialyzed FBS	438	412	392

CC(C)(O)Cn1c(NC(=O)c2ccc(-c3cn[nH]c3)s2)nc2cc(CN3CCOCC3)ccc21
AUC of viability dose-response curve
Conditions	NOMO1	P12-Ichikawa [4]	SEM cells [3]
HPLM + 10% dialyzed FBS	352	365	226
RPMI 5 mM glucose + 10% FBS	369	364	206
RPMI 5 mM glucose + 10% dialyzed FBS	368	364	207

N[S+](=O)([O-])NCCNc1nonc1/C(=N/O)Nc1ccc(F)c(Br)c1
AUC of viability dose-response curve
Conditions	NOMO1	P12-Ichikawa [4]	SEM cells [3]
HPLM + 10% dialyzed FBS	353	354	435
RPMI 5 mM glucose + 10% FBS	373	389	375
RPMI 5 mM glucose + 10% dialyzed FBS	411	401	414

CCc1nc(-c2cccc(C)c2)c(-c2ccnc(NC(=O)c3ccccc3)c2)s1
AUC of viability dose-response curve
Conditions	NOMO1	P12-Ichikawa [4]	SEM cells [3]
HPLM + 10% dialyzed FBS	461	449	463
RPMI 5 mM glucose + 10% FBS	454	456	452
RPMI 5 mM glucose + 10% dialyzed FBS	443	450	449

CC(C)n1cnc2c(NCCCCCCNC(=O)OC(C)(C)C)nc(NCCO)nc21
AUC of viability dose-response curve
Conditions	NOMO1	P12-Ichikawa [4]	SEM cells [3]
HPLM + 10% dialyzed FBS	443	464	453
RPMI 5 mM glucose + 10% FBS	455	449	462
RPMI 5 mM glucose + 10% dialyzed FBS	469	449	454

Cc1cc2c(cc1C1(c3ccc(C(=O)O)cn3)CC1)C(C)(C)CCC2(C)C
AUC of viability dose-response curve
Conditions	NOMO1	P12-Ichikawa [4]	SEM cells [3]
HPLM + 10% dialyzed FBS	371	433	458
RPMI 5 mM glucose + 10% FBS	429	435	418
RPMI 5 mM glucose + 10% dialyzed FBS	417	429	407

CC(/C=C1\SC(=S)N(CC(=O)O)C1=O)=C\c1ccccc1
AUC of viability dose-response curve
Conditions	NOMO1	P12-Ichikawa [4]	SEM cells [3]
HPLM + 10% dialyzed FBS	452	461	471
RPMI 5 mM glucose + 10% FBS	454	440	420
RPMI 5 mM glucose + 10% dialyzed FBS	472	457	476

CC(C)(C)c1cnc(CSc2cnc(NC(=O)C3CCNCC3)s2)o1
AUC of viability dose-response curve
Conditions	NOMO1	P12-Ichikawa [4]	SEM cells [3]
HPLM + 10% dialyzed FBS	289	250	297
RPMI 5 mM glucose + 10% FBS	321	321	309
RPMI 5 mM glucose + 10% dialyzed FBS	312	330	311

CC[C@@H]1/C=C(\C)C[C@H](C)C[C@H](OC)[C@H]2O[C@@](O)(C(=O)C(=O)N3CCCC[C@H]3C(=O)O[C@H](/C(C)=C/[C@@H]3CC[C@H](Cl)[C@H](OC)C3)[C@H](C)[C@@H](O)CC1=O)[C@H](C)C[C@@H]2OC
SEM cells [1], HPLM + 10% dialyzed FBS
Conditions	cell viability [%]
0.000781 µM	115
0.00234 µM	128
0.00702 µM	117
0.0211 µM	135
0.0632 µM	122
0.19 µM	128
0.569 µM	117
1.71 µM	109
5.12 µM	109
15.4 µM	105
46.1 µM	104

AUC of viability dose-response curve
Conditions	NOMO1	P12-Ichikawa [4]	SEM cells [3]
HPLM + 10% dialyzed FBS	457	467	451
RPMI 5 mM glucose + 10% FBS	466	456	453
RPMI 5 mM glucose + 10% dialyzed FBS	474	468	449

O=C(CCN1CCN(C(=O)OCc2cc(Cl)cc(Cl)c2)CC1)c1ccc2[nH]c(=O)oc2c1
AUC of viability dose-response curve
Conditions	NOMO1	P12-Ichikawa [4]	SEM cells [3]
HPLM + 10% dialyzed FBS	470	466	472
RPMI 5 mM glucose + 10% FBS	431	454	465
RPMI 5 mM glucose + 10% dialyzed FBS	448	459	469

COc1cc2nc(N3CCN(C(=O)C4CCCO4)CC3)nc(N)c2cc1OC (centres undefined)
cell viability [%], SEM cells [1]
Conditions	HPLM + 10% dialyzed FBS	RPMI 5 mM glucose + 10% dialyzed FBS
0.000781 µM	74.1	84.6
0.00234 µM	117	125
0.00702 µM	97	110
0.0211 µM	118	124
0.0632 µM	109	134
0.19 µM	117	142
0.569 µM	122	27.4
1.71 µM	114	134
5.12 µM	116	162
15.4 µM	119	148
46.1 µM	113	128

Conditions	AUC of viability dose-response curve	cell viability [%]
NOMO1, HPLM + 10% dialyzed FBS	473	–
NOMO1, RPMI 5 mM glucose + 10% FBS	471	–
NOMO1, RPMI 5 mM glucose + 10% dialyzed FBS	458	–
P12-Ichikawa [2], 0.000781 µM	–	112
P12-Ichikawa [2], 0.00234 µM	–	123
P12-Ichikawa [2], 0.00702 µM	–	123
P12-Ichikawa [2], 0.0211 µM	–	127
P12-Ichikawa [2], 0.0632 µM	–	130
P12-Ichikawa [2], 0.19 µM	–	130
P12-Ichikawa [2], 0.569 µM	–	131
P12-Ichikawa [2], 1.71 µM	–	124
P12-Ichikawa [2], 5.12 µM	–	127
P12-Ichikawa [2], 15.4 µM	–	139
P12-Ichikawa [2], 46.1 µM	–	136
P12-Ichikawa [4], HPLM + 10% dialyzed FBS	447	–
P12-Ichikawa [4], RPMI 5 mM glucose + 10% FBS	470	–
P12-Ichikawa [4], RPMI 5 mM glucose + 10% dialyzed FBS	445	–
SEM cells [3], HPLM + 10% dialyzed FBS	430	–
SEM cells [3], RPMI 5 mM glucose + 10% FBS	460	–
SEM cells [3], RPMI 5 mM glucose + 10% dialyzed FBS	418	–

CC(=O)Nc1ccc(O)cc1
AUC of viability dose-response curve
Conditions	NOMO1	P12-Ichikawa [4]	SEM cells [3]
HPLM + 10% dialyzed FBS	464	455	472
RPMI 5 mM glucose + 10% FBS	459	458	476
RPMI 5 mM glucose + 10% dialyzed FBS	463	470	467

CCO[C@@H]1OC(=O)C[C@@H]1NC(=O)[C@@H]1CCCN1C(=O)[C@@H](NC(=O)c1ccc(N)c(Cl)c1)C(C)(C)C
cell viability [%], SEM cells [1]
Conditions	HPLM + 10% dialyzed FBS	RPMI 5 mM glucose + 10% dialyzed FBS
0.000781 µM	106	103
0.00234 µM	121	126
0.00702 µM	124	125
0.0211 µM	109	115
0.0632 µM	145	140
0.19 µM	138	158
0.569 µM	119	146
1.71 µM	150	156
5.12 µM	151	126
15.4 µM	142	146
46.1 µM	111	125

AUC of viability dose-response curve
Conditions	NOMO1	P12-Ichikawa [4]	SEM cells [3]
HPLM + 10% dialyzed FBS	328	345	453
RPMI 5 mM glucose + 10% FBS	305	356	477
RPMI 5 mM glucose + 10% dialyzed FBS	318	374	446

COc1ccc2c(c1)c(CC(=O)O)c(C)n2C(=O)c1ccc(Cl)cc1
AUC of viability dose-response curve
Conditions	NOMO1	P12-Ichikawa [4]	SEM cells [3]
HPLM + 10% dialyzed FBS	461	440	459
RPMI 5 mM glucose + 10% FBS	473	466	432
RPMI 5 mM glucose + 10% dialyzed FBS	460	466	466
